In this experiment the test system is high-risk stage II and III early breast cancer. The experiment is described as follows: I-SPY2 neoadjuvant platform trial: pCR rate by arm within receptor or response-predictive subtype. The experiment is classed as in vivo, women. An excerpt: I-SPY2 is an ongoing, open-label, adaptive, randomized phase II, multicenter trial of neoadjuvant therapy for early-stage breast cancer (NCT01042379; IND 105139). It is a platform trial evaluating multiple investigational arms in parallel against a common standard of care control arm. The primary endpoint is pCR (ypT0/is, ypN0), defined as the absence of invasive cancer in the breast and regional nodes at the time of surgery. As I-SPY2 is modified intent-to-treat, patients receiving any dose of study therapy are considered evaluable; those who switch to non-protocol therapy, progress, forgo surgery, or withdraw are deemed ‘non-pCR’. Secondary endpoints include residual cancer burden (RCB) and event-free and distant relapse-free survival (EFS and DRFS) (Symmans et al., 2007)
Assessments at screening establish eligibility and classify participants into subtypes defined by hormone receptor (HR) status, HER2, and 70-gene signature (MammaPrint®) status (Cardoso et al., 2016; Piccart et al., 2021). Adaptive randomization in I-SPY2 preferentially assigns patients to trial arms according to continuously updated Bayesian probabilities of pCR rates within each biomarker signature; 20% of patients are randomly assigned to the control arm (Berry, 2011). […] An arm can be dropped for futility if the predicted probability of success in a future 300-patient, 1:1 randomized, phase 3 trial drops below 10%, or graduate for efficacy if the probability of success reaches 85% or greater in any biomarker signature. The clinical control arm for the efficacy analysis uses patients randomized throughout the entire trial. […] During the design of each new experimental arm the investigators together with the pharmaceutical sponsor decide in which of the 10 a priori defined biomarker signatures the drug will be tested. Upon entry to the trial, participants are dichotomized into hormone receptor (HR) negative versus positive, HER2 positive versus negative, and MammaPrint High1 [MP1] versus High2 [MP2] status.
This correlative study involved 987 women with high-risk stage II and III early breast cancer who were enrolled in 10 arms of I-SPY2: the first 9 experimental arms that completed evaluation and the control arm as shown in the schema of FIG. 1A. […] For HER2+ patients, N was administered instead of H, whereas M and trebananib were administered in addition to H. Dose reductions and toxicity management were specified in the protocol. Adverse events were collected according to the NCI Common Terminology Criteria for Adverse Events (CTCAE) version 4.0. After completion of AC, patients underwent lumpectomy or mastectomy and nodal sampling, with choice of surgery at the discretion of the treating surgeon. Detailed descriptions of the design, eligibility, and efficacy of these 9 experimental arms of the I-SPY2 trial have been reported previously (Chien et al., 2019; Clark et al., 2021; Nanda et al., 2020; Park et al., 2016; Pusztai et al., 2021; Rugo et al., 2016).
A major goal of a response-predictive schema is to increase the pCR rate in the population and to maximize the probability of pCR for an individual patient (R2).

Consider `CCOc1cc2ncc(C#N)c(Nc3ccc(OCc4ccccn4)c(Cl)c3)c2cc1NC(=O)/C=C/CN(C)C` [N, neratinib], for which, for the setting “RPS-7 S6: HER2=0/Immune-/DRD-”, the pCR rate was 20%.
Consider pertuzumab, for which the pCR rate (HER2+/BP-Luminal class (RPS-5)) is listed as 8%.
Regarding veliparib/carboplatin [VC], the pCR rate is, setting by setting: (HER2-/Immune-/DRD+ (RPS-5)) 60%; (RPS-7 S5: HER2=0.or.low/Immune-/DRD+) 60%; (TN, DRD+ patients) 75%; (TN, Immune+/DRD+ class) 74%; (TN, Immune-/DRD+ class) 80%.
pembrolizumab: the pCR rate is 79% (HER2-/Immune+ (RPS-5)); 30% (HR+HER2- receptor subtype); 79% (RPS-7 S3: HER2=0.or.low/Immune+); 66% (TN receptor subtype); 89% (TN, Immune+ patients); 92% (TN, Immune+/DRD+ class). The pCR rate reads like this: (TN, Immune+/DRD- class) 80%; (TN, Immune-/DRD+ class) 33%.
In the case of `NC1(c2ccc(-c3nc4ccn5c(=O)[nH]nc5c4cc3-c3ccccc3)cc2)CCC1` [MK2206, 8-[4-(1-aminocyclobutyl)phenyl]-9-phenyl-2H-[1,2,4]triazolo[3,4-f][1,6]naphthyridin-3-one], the pCR rate is 48% (HER2+/BP-HER2 or BP-Basal patients (RPS-5)); 60% (HER2+/BP-Luminal class (RPS-5)); 20% (HER2-/Immune-/DRD- (RPS-5)); 60% (RPS-7 S2: HER2+/BP Luminal); 20% (RPS-7 S6: HER2=0/Immune-/DRD-); 20% (RPS-7 S7: HR+HER2low/Immune-DRD-).
ganitumab: where the note is “RPS-7 S4: HR-/HER2low/Immune-/DRD-”, the pCR rate is 40%.

The record behind these values is patent US20240060138A1, “BREAST CANCER-RESPONSE PREDICTION SUBTYPES” (The Regents of The University of California, priority 2022, published 2024).
